# Measurements published in ChEMBL document CHEMBL1201862, “PubChem BioAssay data set” (2004).
# The source made the active and inactive calls.
# What was measured:
# [1] = molecular target: T1, Mannose-6-phosphate isomerase (Homo sapiens, UniProt P34949); experiment: human PMI inhibitors, high substrate, primary screen, biochemical, fluorescence intensity, high mannose 6-phosphate (AID 1220)
# T1 sequence (P34949 whole entry): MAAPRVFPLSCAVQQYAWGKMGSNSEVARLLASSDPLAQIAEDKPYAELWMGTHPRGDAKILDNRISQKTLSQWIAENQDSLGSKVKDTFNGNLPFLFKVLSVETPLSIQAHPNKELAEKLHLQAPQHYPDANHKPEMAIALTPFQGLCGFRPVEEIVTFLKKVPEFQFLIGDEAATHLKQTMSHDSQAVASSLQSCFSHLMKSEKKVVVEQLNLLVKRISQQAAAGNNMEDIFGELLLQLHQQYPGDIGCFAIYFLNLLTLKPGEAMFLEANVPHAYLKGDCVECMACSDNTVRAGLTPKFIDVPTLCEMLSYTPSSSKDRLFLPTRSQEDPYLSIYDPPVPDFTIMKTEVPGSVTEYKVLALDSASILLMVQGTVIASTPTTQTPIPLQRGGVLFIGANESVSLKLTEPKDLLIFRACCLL
# [2] = Artemis endonuclease inhibitor potency, dose response, biochemical, fluorescence intensity (AID 720701); format: functional;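 further: Artemis endonuclease enzyme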
# [3] = molecular target: Peroxisome proliferator-activated receptor gamma/Nuclear receptor coactivator 2 (Homo sapiens, UniProt P37231); format: functional;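 further: agonist potency for raising coactivator recruitment to the receptor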
# Sequence of Peroxisome proliferator-activated receptor gamma/Nuclear receptor coactivator 2 (P37231 whole entry): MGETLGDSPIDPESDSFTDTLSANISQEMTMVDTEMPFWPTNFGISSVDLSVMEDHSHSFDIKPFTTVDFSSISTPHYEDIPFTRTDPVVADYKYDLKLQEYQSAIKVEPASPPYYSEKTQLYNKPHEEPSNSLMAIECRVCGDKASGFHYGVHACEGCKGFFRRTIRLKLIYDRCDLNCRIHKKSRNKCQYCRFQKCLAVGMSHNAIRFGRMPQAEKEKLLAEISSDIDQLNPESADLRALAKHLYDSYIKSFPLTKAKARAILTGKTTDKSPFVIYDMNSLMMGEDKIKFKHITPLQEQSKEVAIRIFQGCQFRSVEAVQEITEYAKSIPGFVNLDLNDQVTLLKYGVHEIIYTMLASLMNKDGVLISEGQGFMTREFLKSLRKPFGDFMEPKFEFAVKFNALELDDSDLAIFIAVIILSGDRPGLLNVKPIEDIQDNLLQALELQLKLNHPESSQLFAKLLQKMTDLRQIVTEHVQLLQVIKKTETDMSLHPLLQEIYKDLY
# Sequence of Peroxisome proliferator-activated receptor gamma/Nuclear receptor coactivator 2 (Q15596 whole entry, further chain): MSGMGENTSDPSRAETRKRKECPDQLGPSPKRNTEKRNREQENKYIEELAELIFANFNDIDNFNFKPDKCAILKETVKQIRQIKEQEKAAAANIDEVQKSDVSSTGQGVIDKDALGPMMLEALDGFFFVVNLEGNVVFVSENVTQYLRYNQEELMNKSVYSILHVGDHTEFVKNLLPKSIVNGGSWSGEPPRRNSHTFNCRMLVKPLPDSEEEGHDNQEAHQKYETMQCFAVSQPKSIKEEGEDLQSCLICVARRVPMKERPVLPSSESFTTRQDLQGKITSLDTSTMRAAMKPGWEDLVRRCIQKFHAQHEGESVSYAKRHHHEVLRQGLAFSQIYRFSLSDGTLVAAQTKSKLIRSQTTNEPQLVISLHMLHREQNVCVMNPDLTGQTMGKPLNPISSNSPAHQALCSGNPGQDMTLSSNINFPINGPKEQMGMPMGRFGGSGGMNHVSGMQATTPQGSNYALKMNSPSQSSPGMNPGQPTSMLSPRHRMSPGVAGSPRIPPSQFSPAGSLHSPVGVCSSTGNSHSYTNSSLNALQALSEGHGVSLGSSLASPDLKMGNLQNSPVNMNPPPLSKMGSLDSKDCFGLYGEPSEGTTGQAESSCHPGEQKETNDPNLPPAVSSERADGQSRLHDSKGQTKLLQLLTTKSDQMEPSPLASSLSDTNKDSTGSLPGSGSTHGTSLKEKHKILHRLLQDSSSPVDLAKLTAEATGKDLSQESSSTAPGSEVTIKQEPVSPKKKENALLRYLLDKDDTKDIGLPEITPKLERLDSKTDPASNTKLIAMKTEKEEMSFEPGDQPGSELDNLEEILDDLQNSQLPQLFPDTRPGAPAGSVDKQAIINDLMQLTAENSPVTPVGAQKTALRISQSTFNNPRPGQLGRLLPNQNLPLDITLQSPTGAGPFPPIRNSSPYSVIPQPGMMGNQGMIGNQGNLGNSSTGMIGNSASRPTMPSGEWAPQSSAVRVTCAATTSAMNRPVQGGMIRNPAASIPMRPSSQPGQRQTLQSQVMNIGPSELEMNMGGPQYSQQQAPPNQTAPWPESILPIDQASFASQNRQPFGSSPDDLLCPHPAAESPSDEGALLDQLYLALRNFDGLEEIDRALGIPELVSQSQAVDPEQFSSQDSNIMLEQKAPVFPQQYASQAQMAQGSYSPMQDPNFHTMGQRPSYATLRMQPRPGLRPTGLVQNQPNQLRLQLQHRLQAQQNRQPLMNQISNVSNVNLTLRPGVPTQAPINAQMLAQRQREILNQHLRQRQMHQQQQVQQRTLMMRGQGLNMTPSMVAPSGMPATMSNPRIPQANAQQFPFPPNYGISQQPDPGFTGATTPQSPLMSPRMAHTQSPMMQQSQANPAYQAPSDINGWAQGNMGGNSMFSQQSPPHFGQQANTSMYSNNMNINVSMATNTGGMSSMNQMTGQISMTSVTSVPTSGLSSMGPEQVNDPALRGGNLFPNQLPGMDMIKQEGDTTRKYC
# [4] = Luminescence Cell-Based Dose Response HTS to Identify Activators of Luciferase Translation or Activity in H4 […] Cells. [Related pubchem assays: 1829 (Project Summary), 1814 (Primary HTS)]; format: functional
# [5] = molecular target: Glucose-6-phosphate 1-dehydrogenase (Homo sapiens, UniProt P11413); experiment: human G6PD enzyme inhibitors, dose response, selectivity assay for P. falciparum G6PD inhibitor project, biochemical, fluorescence (AID 504792); format: functional
# Beta-arrestin-1 = Beta-arrestin-1 (Homo sapiens, UniProt P49407); experiment: inhibitors of arrestin peptide binding to AP2, dose response, biochemical, cherry pick 1, beta2-adaptin appendage, flow cytometry (AID 588783); format: functional
# [6] = HeLa cell cytotoxicity, dose response, cytotoxicity control for MgcRacGAP inhibitor project (AID 624300); format: functional
# Hexokinase HKDC1 = molecular target: T2, Hexokinase HKDC1 (Homo sapiens, UniProt Q2TB90); experiment: HKDC1 hexokinase activators, dose response, biochemical, W721R variant (AID 504730); format: functional
# T2 sequence (Q2TB90 whole entry): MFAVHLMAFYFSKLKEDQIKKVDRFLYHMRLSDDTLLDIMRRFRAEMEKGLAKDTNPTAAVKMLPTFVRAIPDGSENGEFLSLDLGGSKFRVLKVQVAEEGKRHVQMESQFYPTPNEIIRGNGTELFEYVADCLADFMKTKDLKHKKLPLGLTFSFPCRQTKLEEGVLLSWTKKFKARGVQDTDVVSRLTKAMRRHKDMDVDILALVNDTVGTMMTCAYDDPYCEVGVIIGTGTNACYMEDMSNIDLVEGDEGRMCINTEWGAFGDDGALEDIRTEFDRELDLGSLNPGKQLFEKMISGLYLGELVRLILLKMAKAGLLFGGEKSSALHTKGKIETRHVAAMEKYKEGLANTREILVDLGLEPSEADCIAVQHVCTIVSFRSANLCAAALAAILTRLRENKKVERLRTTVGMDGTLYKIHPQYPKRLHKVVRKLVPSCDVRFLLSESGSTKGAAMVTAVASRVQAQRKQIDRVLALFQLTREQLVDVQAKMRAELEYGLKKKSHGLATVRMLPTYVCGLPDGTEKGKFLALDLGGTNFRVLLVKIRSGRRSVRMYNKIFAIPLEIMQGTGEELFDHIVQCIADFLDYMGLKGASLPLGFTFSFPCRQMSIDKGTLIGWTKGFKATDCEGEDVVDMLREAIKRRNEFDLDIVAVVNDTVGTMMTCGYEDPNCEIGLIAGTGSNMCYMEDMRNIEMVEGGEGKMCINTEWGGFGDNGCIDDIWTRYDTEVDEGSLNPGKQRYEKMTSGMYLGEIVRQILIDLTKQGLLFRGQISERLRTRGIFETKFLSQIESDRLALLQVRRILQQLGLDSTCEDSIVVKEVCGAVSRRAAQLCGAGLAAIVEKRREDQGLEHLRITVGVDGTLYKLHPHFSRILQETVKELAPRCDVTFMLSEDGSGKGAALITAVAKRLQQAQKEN
# HEK293 = experiment: NOD1 signaling inhibitors, primary screen, cell-based, luminescence, uHTS (AID 1578); format: functional; details: Homo sapiens
# [7] = molecular target: Tyrosine-protein kinase JAK2 (Homo sapiens, UniProt O60674); format: functional;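 further: JAK2 tested as one member of a kinase panel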
# Sequence of Tyrosine-protein kinase JAK2 (O60674 whole entry): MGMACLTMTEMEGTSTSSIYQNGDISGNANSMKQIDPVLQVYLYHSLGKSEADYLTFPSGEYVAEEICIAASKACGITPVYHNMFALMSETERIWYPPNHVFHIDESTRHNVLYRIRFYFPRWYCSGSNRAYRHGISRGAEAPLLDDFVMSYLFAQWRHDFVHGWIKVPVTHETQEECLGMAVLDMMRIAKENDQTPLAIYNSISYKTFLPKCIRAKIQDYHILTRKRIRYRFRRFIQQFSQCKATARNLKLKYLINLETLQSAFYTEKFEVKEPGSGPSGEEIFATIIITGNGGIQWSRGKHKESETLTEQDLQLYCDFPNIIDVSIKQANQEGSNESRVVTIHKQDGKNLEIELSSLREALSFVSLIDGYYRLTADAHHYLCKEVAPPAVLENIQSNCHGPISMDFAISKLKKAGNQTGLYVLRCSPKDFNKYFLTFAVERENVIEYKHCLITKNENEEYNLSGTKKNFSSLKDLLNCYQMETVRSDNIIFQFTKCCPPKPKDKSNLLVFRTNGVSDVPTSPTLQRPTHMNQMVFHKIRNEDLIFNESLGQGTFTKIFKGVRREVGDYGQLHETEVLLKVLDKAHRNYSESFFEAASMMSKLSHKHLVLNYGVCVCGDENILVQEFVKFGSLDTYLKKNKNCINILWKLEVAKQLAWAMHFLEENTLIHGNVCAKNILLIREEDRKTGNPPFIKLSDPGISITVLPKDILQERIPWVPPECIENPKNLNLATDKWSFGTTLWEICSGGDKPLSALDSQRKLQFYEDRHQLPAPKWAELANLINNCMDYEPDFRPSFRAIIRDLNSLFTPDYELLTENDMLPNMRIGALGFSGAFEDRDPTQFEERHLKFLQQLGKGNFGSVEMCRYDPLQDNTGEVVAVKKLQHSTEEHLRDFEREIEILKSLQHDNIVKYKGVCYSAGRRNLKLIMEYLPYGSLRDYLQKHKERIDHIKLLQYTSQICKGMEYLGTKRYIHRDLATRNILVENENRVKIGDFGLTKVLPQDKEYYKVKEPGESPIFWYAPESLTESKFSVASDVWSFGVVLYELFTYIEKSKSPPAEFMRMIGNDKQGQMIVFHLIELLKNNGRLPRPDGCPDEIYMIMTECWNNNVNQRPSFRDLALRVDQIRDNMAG
# [8] = molecular target: Protein kinase C zeta type (Homo sapiens, UniProt Q05513); format: functional;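 further: measured as one member of a broad kinase profiling panel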
# Sequence of Protein kinase C zeta type (Q05513 whole entry): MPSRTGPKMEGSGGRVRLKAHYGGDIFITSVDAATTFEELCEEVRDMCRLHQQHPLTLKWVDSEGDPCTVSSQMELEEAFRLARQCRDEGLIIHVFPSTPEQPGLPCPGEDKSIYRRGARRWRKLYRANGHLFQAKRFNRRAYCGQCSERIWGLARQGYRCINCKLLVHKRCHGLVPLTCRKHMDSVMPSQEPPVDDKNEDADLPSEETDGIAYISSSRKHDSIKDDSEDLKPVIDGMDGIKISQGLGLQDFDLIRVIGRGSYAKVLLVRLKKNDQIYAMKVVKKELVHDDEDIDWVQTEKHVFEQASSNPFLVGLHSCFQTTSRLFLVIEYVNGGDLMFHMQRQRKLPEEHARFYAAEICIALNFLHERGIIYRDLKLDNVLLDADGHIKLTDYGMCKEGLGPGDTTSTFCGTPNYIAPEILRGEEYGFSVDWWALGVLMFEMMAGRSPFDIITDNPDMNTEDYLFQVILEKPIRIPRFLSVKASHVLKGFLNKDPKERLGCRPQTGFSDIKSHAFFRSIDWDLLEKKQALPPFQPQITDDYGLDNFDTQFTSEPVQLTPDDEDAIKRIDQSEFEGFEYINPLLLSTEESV
# [9] = molecular target: Serine/threonine-protein kinase TBK1 (Homo sapiens, UniProt Q9UHD2); experiment: Navigating the Kinome. Panel member name: TBK1; format: functional
# [10] = molecular target: ALK tyrosine kinase receptor (Homo sapiens, UniProt Q9UM73); format: functional;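 further: ALK tested as one member of a kinase panel screen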
# [11] = molecular target: Proto-oncogene tyrosine-protein kinase receptor Ret (Homo sapiens, UniProt P07949); format: functional;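 further: measured within a kinome-wide profiling panel, RET as the panel member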
# [12] = molecular target: Serine/threonine-protein kinase 17A (Homo sapiens, UniProt Q9UEE5); format: functional
# Sequence of Serine/threonine-protein kinase 17A (Q9UEE5 whole entry): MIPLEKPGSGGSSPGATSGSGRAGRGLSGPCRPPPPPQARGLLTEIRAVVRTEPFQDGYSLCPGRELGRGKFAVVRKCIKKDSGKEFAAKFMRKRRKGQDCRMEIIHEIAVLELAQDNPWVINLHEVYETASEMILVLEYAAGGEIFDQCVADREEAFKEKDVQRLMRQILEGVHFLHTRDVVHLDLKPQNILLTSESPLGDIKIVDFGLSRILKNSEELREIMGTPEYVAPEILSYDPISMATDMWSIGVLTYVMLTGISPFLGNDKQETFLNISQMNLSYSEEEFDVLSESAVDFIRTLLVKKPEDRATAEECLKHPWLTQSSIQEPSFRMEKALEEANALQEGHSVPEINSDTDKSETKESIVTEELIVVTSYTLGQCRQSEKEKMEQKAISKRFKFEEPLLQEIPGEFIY
# [13] = molecular target: Death-associated protein kinase 3 (Homo sapiens, UniProt O43293); format: functional;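 further: measured as one member of a kinome-wide profiling panel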
# [14] = molecular target: Tyrosine-protein kinase BTK (Homo sapiens, UniProt Q06187); format: functional
# [15] = molecular target: Serine/threonine-protein kinase PAK 1 (Homo sapiens, UniProt Q13153); format: functional
# [16] = molecular target: Testis-specific serine/threonine-protein kinase 1 (Homo sapiens, UniProt Q9BXA7); format: functional
# [17] = molecular target: Receptor-type tyrosine-protein kinase FLT3 (Homo sapiens, UniProt P36888); format: functional;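 further: FLT3 was tested as one member of a kinome-wide kinase panel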
# [18] = molecular target: MAP kinase-activated protein kinase 3 (Homo sapiens, UniProt Q16644); format: functional;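 further: value comes from a kinome-wide profiling panel in which MAPKAPK3 is one of the panel members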
# [19] = molecular target: Dual specificity tyrosine-phosphorylation-regulated kinase 4 (Homo sapiens, UniProt Q9NR20); format: functional
# Sequence of Dual specificity tyrosine-phosphorylation-regulated kinase 4 (Q9NR20 whole entry): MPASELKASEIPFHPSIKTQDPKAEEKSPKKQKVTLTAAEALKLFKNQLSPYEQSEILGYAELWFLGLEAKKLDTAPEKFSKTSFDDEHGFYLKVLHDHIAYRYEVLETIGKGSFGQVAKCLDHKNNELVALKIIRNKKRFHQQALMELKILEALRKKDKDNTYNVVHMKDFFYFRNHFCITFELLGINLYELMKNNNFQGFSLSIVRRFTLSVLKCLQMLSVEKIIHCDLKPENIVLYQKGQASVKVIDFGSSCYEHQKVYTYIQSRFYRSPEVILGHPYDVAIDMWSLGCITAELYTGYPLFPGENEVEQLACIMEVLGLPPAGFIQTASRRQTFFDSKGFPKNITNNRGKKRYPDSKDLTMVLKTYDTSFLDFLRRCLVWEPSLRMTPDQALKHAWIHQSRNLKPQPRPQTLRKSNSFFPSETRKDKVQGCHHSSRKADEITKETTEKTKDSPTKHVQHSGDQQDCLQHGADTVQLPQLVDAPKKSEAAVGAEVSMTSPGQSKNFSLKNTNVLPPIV
# [20] = molecular target: Protein-tyrosine kinase 6 (Homo sapiens, UniProt Q13882); format: functional
# Sequence of Protein-tyrosine kinase 6 (Q13882 whole entry): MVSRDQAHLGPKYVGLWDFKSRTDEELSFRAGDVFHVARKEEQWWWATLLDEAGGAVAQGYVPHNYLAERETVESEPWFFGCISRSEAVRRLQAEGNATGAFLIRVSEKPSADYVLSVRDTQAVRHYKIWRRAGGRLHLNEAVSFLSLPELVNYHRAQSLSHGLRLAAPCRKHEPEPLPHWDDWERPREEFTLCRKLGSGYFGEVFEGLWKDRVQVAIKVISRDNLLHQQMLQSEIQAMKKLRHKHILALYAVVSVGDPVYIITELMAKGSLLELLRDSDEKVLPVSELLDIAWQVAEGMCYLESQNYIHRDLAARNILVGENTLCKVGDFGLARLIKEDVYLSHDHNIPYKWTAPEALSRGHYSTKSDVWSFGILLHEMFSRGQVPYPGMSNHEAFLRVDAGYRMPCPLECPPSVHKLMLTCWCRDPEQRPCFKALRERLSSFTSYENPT
# [21] = molecular target: Homeodomain-interacting protein kinase 4 (Homo sapiens, UniProt Q8NE63); format: functional
# [22] = molecular target: 3-phosphoinositide-dependent protein kinase 1 (Homo sapiens, UniProt O15530); format: functional;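 further: value comes from the Navigating the Kinome panel, PDPK1 member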
# [23] = HepG2 cell cytotoxicity, dose response, cytotoxicity control, plate reader, cherry-pick, antagonist series (AID 743416); format: functional, cell-based
# BJ = experiment: cytotoxicity toward BJ-TERT fibroblasts, dose response, cell-based, RAS-independent, luminescence (AID 1933); format: functional; details: Homo sapiens
smiles,measurement,setting,value
Cc1ccc(C(=O)c2c(C)oc3c2C(=O)C(=O)c2ccccc2-3)cc1,IC50,[1],> 50 µM (not active)
same,IC50,[2],2.2 µM (active)
CN(C)c1ncc(C2=C(Cl)C(=O)C(N3CCCC3)=C(Cl)C2=O)s1,EC50,[3],> 79.4 µM (not active)
same,EC50,[4],13.7 µM (active)
same,IC50,[5],30.7 µM (inactive)
same,IC50,Beta-arrestin-1,10.7 µM (active)
same,CC50,[6],18.7 µM (active)
O=C1C(Cl)=C(NCc2cccnc2)C(=O)c2ccccc21,EC50,Hexokinase HKDC1,9.25 µM (active)
O=C1C(O)=C/C(=N\c2ccccc2O)c2ccccc21,EC50,HEK293,14.8 µM (active)
O=C1NC(=S)SC1=C1C(=O)Nc2ccc(Br)cc21,Ki,[7],> 1.58 µM (inactive)
same,Ki,[8],> 7.94 µM (inactive)
same,Ki,[9],> 1.58 µM (inactive)
same,Ki,[10],> 1.26 µM (inactive)
same,Ki,[11],> 1.26 µM (inactive)
same,Ki,[12],0.631 µM (active)
same,Ki,[13],0.2 µM (active)
same,Ki,[14],> 1.26 µM (inactive)
same,Ki,[15],> 10 µM (inactive)
same,Ki,[16],> 1.58 µM (inactive)
same,Ki,[17],0.158 µM (active)
same,Ki,[18],> 10 µM (inactive)
same,Ki,[19],> 7.94 µM (inactive)
same,Ki,[20],> 2.51 µM (inactive)
same,Ki,[21],0.631 µM (active)
same,Ki,[22],> 3.98 µM (inactive)
Cc1cnc(NC(=O)c2sc3ccccc3c2Cl)s1,AC50,[23],> 52 µM (inactive)
same,EC50,cells,> 67.5 µM (inactive)
Cc1ccc(Nc2cc(C)nn2-c2nc(C)cc(O)n2)cc1,EC50,BJ,0.549 µM (active)
